Nine compounds from EP0127426A1, “Percutaneous pharmaceutical compositions for external use” (Takeda Chemical Industries, Ltd., priority 1983, dated 1984) can be followed below.

Read-outs that look alike come from different tables or passages of the source.

One series is described as follows: in vivo. Particulars: male, SD-JCL, rat, topical or ocular.
The conditions of series [1]: rat, in vivo. On the procedure:
3 mg of clonidine, an antihypertensive drug, was dissolved in a mixture of 20 mg of lauric acid, one of the percutaneous absorption promoting agents according to this invention, and 177 mg of propylene glycol to prepare a coating sample.
A percutaneous absorption test was carried out in male SD-JCL rats with an average body weight of 250 g. Under pentobarbital anesthesia, the abdomen of each rat was clipped of hairs with an electric clipper and the sample was coated on the denuded abdominal area (5 x 4 cm).
The collected venous blood was centrifuged and 0.2 ml of the plasma was extracted with 1 ml of 0.01 N-NaOH and 5 ml of chloroform. From a 4 ml portion of the chloroform layer, the chloroform was distilled off and the residue was dissolved by addition of 0.2ml of 0.05 M sodium acetate-acetonitrile-tetrahydrofuran (70:30:0.2, v/v). A 50 µl portion of the solution was applied to a liquid chromatograph to determine the concentration of clonidine. The µ-Bondapak Cl8 column was used for this liquid chromatography. The percutaneous absorption of clonidine was evaluated in terms of AUC6 (area under the blood concentration-time curve of clonidine during 0 to 6 hours) and its multiple over the [formula] of the preparation of Comparative Example 1 was calculated.

Series [2] is described as follows: Percutaneous absorption test in rats, TRH equivalent plasma concentration from total radioactivity (3H-labeled TRH).
Experiment in series [3]: as above
Protocol: (§1) SD-JCL male rats with an average body weight of 250 g were used as test animals. Under pentobarbital anesthesia, the abdomen of each animal was clipped off hairs (20 cm^2: 5 x 4 cm) with an electric clipper and the sample was applied to the denuded area. Using 5 rats, 0.12 ml of venous blood was taken from the tail vein 1, 2, 4 and 6 hours after application of the sample. Each blood specimen was centrifuged and 0.05 ml of the plasma was put in a polyethylene minivial containing 5 ml of a toluenic scintillator and stirred. After standing, the total radioactivity of the plasma sample was measured with a β-ray scintillation spectrometer and the TRH equivalent concentration of the plasma (µg.eq./ml) was calculated.
(§2) The percutaneous absorption of TRH tartrate was evaluated in AUC6 (the area under the blood concentration-time curve during 0 to 6 hours).
In kind it is in vivo, SD-JCL male rats. Particulars: additive in propylene glycol preparation of TRH tartrate (Comparative Example 2).

The conditions of series [4]: rat, in vivo. This is another data set of the same source.
Protocol: as §1, §2

The term AUC(0-t) denotes exposure summed from dosing to a finite time, without extrapolation to infinity. Lower therefore signals less exposure.

In turn, `CCNC(=O)[C@@H]1CCCN1C(=O)[C@H](CCCNC(=N)N)NC(=O)[C@H](CC(C)C)NC(=O)[C@@H](CC(C)C)NC(=O)[C@H](Cc1ccc(O)cc1)NC(=O)[C@H](CO)NC(=O)[C@H](Cc1c[nH]c2ccccc12)NC(=O)[C@H](Cc1c[nH]cn1)NC(=O)[C@@H]1CCC(=O)N1` [TAP-144] returned an AUC(0-t) in the series “in vivo” of 0.5 ng·h/mL. As for `CCCCCCCC/C=C\CCCCCCCC(=O)O` [oleic acid], the “effectiveness of the percutaneous absorption promoting agent for clonidine” value (from here on “effectiveness”) in series [1] is recorded as “ineffective”. As to “L-pyroglutamyl-L-histidyl-L-prolinamide [TRH]”, the “multiple of the AUC6 value over Comparative Example 1” value in series [2] (Example 5 (TRH, 30 mg oleic acid) vs Comparative Example 1) turned out to be 8.7 times. In series [2] (Example 5: 0.5 mg TRH in 169.5 mg propylene glycol + 30 mg oleic acid), the “AUC6 (the area under the blood concentration-time curve during 0 to 6 hours)” value stood at 1.4 µg.eq.hr/ml. On to “L-pyroglutamyl-L-histidyl-L-prolinamide [TRH tartrate]”, for which the “AUC6 (the area under the blood concentration-time curve during 0 to 6 hours)” value was 0.16 ug.eq.hr/ml in series [2] (Comparative Example 1 (TRH tartrate in propylene glycol, no absorption promoter), restated in Example 5); 0.19 pg.eq/ml in series [2] (Comparative Example 6: 0.8 mg TRH tartrate in 179.2 mg propylene glycol + 20 mg caprylyl alcohol (C8)); 2.22 µg.eq.hr/ml in series [2] (Example 3: 0.8 mg TRH tartrate in 179.2 mg propylene glycol + 20 mg lauric acid, site wiped 5 times with ethanol-sanitary cotton before application); 6.06 ug.eq.hr/ml in series [2] (Example 4: 0.8 mg TRH tartrate in 179.2 mg propylene glycol + 20 mg lauric acid, horny layer stripped 3 times with cellophane tape before application). Also, the “multiple of the AUC6 value over the control preparation of Comparative Example 1” value is “approximately 8 times” in series [2] (Example 1 preparation (20 mg oleic acid) vs Comparative Example 1 (no absorption promoter)); 14 times in series [2] (Example 3 (20 mg lauric acid, ethanol wiping) vs Comparative Example 1); 38 times in series [2] (Example 4 (20 mg lauric acid, horny layer stripped) vs Comparative Example 1). `CCCCCCCCCCCCCC(=O)OC(C)C` [isopropyl myristate]: in series [3], the “absorption promoting effect of the additive” value is reported as “no absorption promoting effect”. For `CCCCCCCC/C=C\CCCCCCCC(N)=O` [oleamide], in series [1], the “effectiveness” value is given as “ineffective”. Consider `NC(=O)C1CCCN1C(=O)C(Cc1c[nH]cn1)NC(=O)C1CCC(=O)O1` [DN-1417, y-butyrolactone-y-carbonyl-L-histidyl-L-prolinamide], for which the “AUC6 (the area under the blood concentration-time curve during 0 to 6 hours)” value in series [4] is given as 0.3 ug.eq.hr/ml. For `CCCCCCCCCCCC(=O)O` [lauric acid], the “effectiveness” value in series [1] was “ineffective”.

For the compound `CCCCCCCCCCCCN` [laurylamine], the “effectiveness” value in series [1] is given as “ineffective”.
